What was measured:
Assay type in all cases: cell-based
[1] = target: T1, EGFR WT (Ba/F3 cells) (Homo sapiens, UniProt P00533); test: Inhibitor activity on EGFR-dependent cell growth (CellTiter-Glo, 72 h), Ba/F3 EGFR WT; conditions: read-out: BaF3 WT IC50
T1 construct: expressed in transfected cells; host or cells: Ba/F3 (murine pro-B cells), retroviral transduction, puromycin selection, maintained with EGF
Method in brief: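 This growth assay used Ba/F3 cells that depend on wild-type EGFR and are kept in EGF without IL3. Compounds were made up as 10 mM DMSO stocks and diluted 3-fold over 10 points. 120 nL went onto 600 cells/well. After 72 hours, 40 μL CellTiter-Glo was added and luminescence read on EnVision after 30 min.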

[2] = target: T2, EGFR exon 20 ASV Ins V769_D770 (Ba/F3 cells) (Homo sapiens, UniProt P00533, INS769ASV); test: Inhibitor activity on EGFR-dependent cell growth (CellTiter-Glo, 72 h), Ba/F3 EGFR exon 20 ASV Ins; conditions: read-out: BaF3 ASV IC50
T2 construct: expressed in transfected cells; host or cells: Ba/F3 (murine pro-B cells), retroviral transduction, puromycin selection, IL3-independent pool
Method in brief: (§1)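 IC50s derive from a sigmoidal dose–response fit of CellTiter-Glo signal. The signal was normalised between […]-treated cells and cell-free medium. Ba/F3 mutant-EGFR cells, seeded at 400–800/well depending on the line, had 72 h of exposure to a 10-point, 3-fold compound series.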

[3] = target: T3, EGFR exon 20 NPG Ins D770_N771 (Ba/F3 cells) (Homo sapiens, UniProt P00533, INS770NPG); test: Inhibitor activity on EGFR-dependent cell growth (CellTiter-Glo, 72 h), Ba/F3 EGFR exon 20 NPG Ins; conditions: read-out: BaF3 NPG IC50
T3 construct: expressed in transfected cells; host or cells: Ba/F3 (murine pro-B cells), retroviral transduction, puromycin selection, IL3-independent pool
Method in brief: as §1

[4] = target: T4, EGFR exon 20 SVD Ins D770_N771 (Ba/F3 cells) (Homo sapiens, UniProt P00533, INS770SVD); test: Inhibitor activity on EGFR-dependent cell growth (CellTiter-Glo, 72 h), Ba/F3 EGFR exon 20 SVD Ins; conditions: read-out: BaF3 SVD IC50
T4 construct: expressed in transfected cells; host or cells: Ba/F3 (murine pro-B cells), retroviral transduction, puromycin selection, IL3-independent pool
Method in brief: as §1

[5] = target: EGFR (CUTO14 cells) (Homo sapiens, UniProt P00533); test: Inhibitor activity on EGFR phosphorylation (pEGFR AlphaLISA, 2 h), CUTO14 cells
Description: Example B. Inhibitor Activity on EGFR phosphorylation (pEGFR)
EGFR mutant Ba/F3 cells were generated by transduction with retrovirus containing vectors expressing EGFR L858R, EGFR exon 19del, EGFR L858R/C797S, EGFR exon 20 NPG Ins D770_N771, EGFR exon 20 ASV Ins V769_D770, or EGFR exon 20 SVD Ins D770_N771 genes along with a puromycin selection marker. Transduced cells are selected with puromycin for 7 days and are then be transferred into culture media without Interleukin 3 (IL3). Surviving cells are confirmed to express EGFR by Western blot and maintained as a pool. CUTO14 cells were obtained from Dr. Robert C. Doebele at the University of Colorado. The IC50 date are included in Table 6 and Table 7.
(§2) 1.1 Cells are harvested from flask into cell culture medium and the cell number counted.
1.2 Cells are diluted with culture medium to the desired density and 40 μL of cell suspension is added into each well of 384-well cell culture plate and the seeding density is 50K cells/well (Ba/F3) or 12.5K cells/well (CUTO14).
(§3) 2 Compound Preparation and Treatment
(§4) 2.1 Test compounds are dissolved to 10 mM in a DMSO stock solution. 45 μL of stock solution is transferred to a 384 polypropylene plate (pp-plate). Perform 3-fold, 10-point dilution via transferring 15 μL compound into 30 μL DMSO using a TECAN (EVO200) liquid handler.
(§5) 2.2 Spin plates at room temperature at 1,000 RPM for 1 minute.
2.3 Transfer 5 nL of diluted compound from compound source plate into the cell plate.
2.4 After compound treatment for 2 hours, perform pEGFR detection by AlphaLISA for compound treatment plates as described in “Detection” section.
3 Detection by pEGFR AlphaLISA (Perkin-Elmer)
3.1 Plates are removed from incubators and equilibrated at room temperature for 10 minutes, and media was removed
3.2 10 μL of lysis buffer is added and plates shaken at 600 rpm for 1 hr.
3.3 Prepare acceptor mix just before use and dispense 5 μL of acceptor mix to all the wells. Shake 350 rpm for Ihr in the dark
3.4 Prepare donor mix under low light conditions prior to use. Dispense 5 μL of donor mix to all the wells. Mix well on the shaker, seal and wrap in aluminum foil and incubate 1.5 hrs at room temperature in the dark
3.5 Transfer 18.5 μL mixture to OptiPlate 384, and read using an Envision. The IC50 date were included in Table 6 and Table 7.

[6] = target: T3, EGFR exon 20 NPG Ins D770_N771 (Ba/F3 cells); test: Inhibitor activity on EGFR phosphorylation (pEGFR AlphaLISA, 2 h), Ba/F3 EGFR exon 20 NPG Ins
Method in brief: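 Ba/F3 cells made IL3-independent by retroviral EGFR mutant expression (puromycin-selected, pooled) and CUTO14 cells were seeded at 50K or 12.5K cells/well, respectively. They were treated 2 h with a 3-fold, 10-point compound series, lysed, and phospho-EGFR was read by AlphaLISA to give IC50.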

[7] = target: EGFR exon 19del (Ba/F3 cells) (Homo sapiens, UniProt P00533); test: Inhibitor activity on EGFR-dependent cell growth (CellTiter-Glo, 72 h), Ba/F3 EGFR exon 19del; conditions: Ba/F3 EGFR exon 19del cell growth, read-out: BaF3 Del19 IC50
Description: (§6) Example A. Inhibitor Activity on EGFR-Dependent Cell Growth
(§7) Cell lines are generated by transducing Ba/F3 cells with retroviruses containing vectors with EGFR WT, EGFR L858R, EGFR exon 19del, EGFR L858R/C797S, EGFR exon 20 NPG Ins D770_N771, EGFR exon 20 ASV Ins V769_D770, EGFR exon 20 SVD Ins D770_N771, or EGFR exon 20 FQEA Ins A763_V764 genes and a puromycin selection marker. Transduced cells are selected with puromycin for 7 days and are then be transferred into culture media without Interleukin 3 (IL3). EGFR WT cells are maintained with supplemental EGF. Surviving cells are confirmed to express EGFR by Western blot and maintained as a pool. The IC50 date were included in Table 6 and Table 7.
as §2
(§8) 1.2 Cells are diluted with culture medium to the desired density and 40 μL of cell suspension is added into each well of 384-well cell culture plate and the seeding density is 800 (FQEA, exon 19del), 600 (WT, NPG, L858R/C797S), or 400 (ASV, SVD, L858R) cells/well.
as §3, §4, §5
(§9) 2.3 Transfer 120 nL of diluted compound from compound source plate into the cell plate.
(§10) 2.4 After compound treatment for 72 hours, perform CTG detection for compound treatment plates as described in “Detection” section.
(§11) 3.1 Plates are removed from incubators and equilibrated at room temperature for 15 minutes.
(§12) 3.2 Thaw the CellTiter Glo reagents and allow to equilibrate to room temperature before the experiment.
(§13) 3.3 Add 40 μL of CellTiter-Glo reagent into each well (at 1:1 to culture medium). Then place the plates at room temperature for 30 min followed by reading on EnVision.
(§14) 4.1 Inhibition activity is calculated following the formula below:
(§15) % Inhibition=100×(LumHC−LumSample)/(LumHC−LumLC) • where HC is obtained from cells treated with 0.1% DMSO only; and LC is obtained from culture medium only.
(§16) 4.2 2. Calculate the IC50 by fitting the Curve using Xlfit (v5.3.1.3), equation 201.
(§17) Y=Bottom+(Top−Bottom)/(1+10^((Log IC50−X)*HillSlope))

[8] = target: T5, EGFR L858R (Ba/F3 cells) (Homo sapiens, UniProt P00533, L858R); test: Inhibitor activity on EGFR-dependent cell growth (CellTiter-Glo, 72 h), Ba/F3 EGFR L858R; conditions: read-out: BaF3 L858R IC50
T5 construct: expressed in transfected cells; host or cells: Ba/F3 (murine pro-B cells), retroviral transduction, puromycin selection, IL3-independent pool
Description: as §6, §7, §2, §8, §3, §4, §5, §9, §10, §11, §12, §13, §14, §15, §16, §17

[9] = target: T6, EGFR exon 20 FQEA Ins A763_V764 (Ba/F3 cells) (Homo sapiens, UniProt P00533, INS763FQEA); test: Inhibitor activity on EGFR-dependent cell growth (CellTiter-Glo, 72 h), Ba/F3 EGFR exon 20 FQEA Ins; conditions: read-out: BaF3 FQEA IC50
T6 construct: expressed in transfected cells; host or cells: Ba/F3 (murine pro-B cells), retroviral transduction, puromycin selection, IL3-independent pool
Method in brief: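 Ba/F3 cells engineered with each EGFR variant were plated (400, 600 or 800 per well for L858R, L858R/C797S, and exon 19del/FQEA). They were exposed for 72 hours to compound serially diluted from a 10 mM DMSO stock. Remaining viable cells were quantified by CellTiter-Glo, and IC50 was curve-fitted.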

T4 sequence (P00533 with tags, fused parts or gaps INS770SVD): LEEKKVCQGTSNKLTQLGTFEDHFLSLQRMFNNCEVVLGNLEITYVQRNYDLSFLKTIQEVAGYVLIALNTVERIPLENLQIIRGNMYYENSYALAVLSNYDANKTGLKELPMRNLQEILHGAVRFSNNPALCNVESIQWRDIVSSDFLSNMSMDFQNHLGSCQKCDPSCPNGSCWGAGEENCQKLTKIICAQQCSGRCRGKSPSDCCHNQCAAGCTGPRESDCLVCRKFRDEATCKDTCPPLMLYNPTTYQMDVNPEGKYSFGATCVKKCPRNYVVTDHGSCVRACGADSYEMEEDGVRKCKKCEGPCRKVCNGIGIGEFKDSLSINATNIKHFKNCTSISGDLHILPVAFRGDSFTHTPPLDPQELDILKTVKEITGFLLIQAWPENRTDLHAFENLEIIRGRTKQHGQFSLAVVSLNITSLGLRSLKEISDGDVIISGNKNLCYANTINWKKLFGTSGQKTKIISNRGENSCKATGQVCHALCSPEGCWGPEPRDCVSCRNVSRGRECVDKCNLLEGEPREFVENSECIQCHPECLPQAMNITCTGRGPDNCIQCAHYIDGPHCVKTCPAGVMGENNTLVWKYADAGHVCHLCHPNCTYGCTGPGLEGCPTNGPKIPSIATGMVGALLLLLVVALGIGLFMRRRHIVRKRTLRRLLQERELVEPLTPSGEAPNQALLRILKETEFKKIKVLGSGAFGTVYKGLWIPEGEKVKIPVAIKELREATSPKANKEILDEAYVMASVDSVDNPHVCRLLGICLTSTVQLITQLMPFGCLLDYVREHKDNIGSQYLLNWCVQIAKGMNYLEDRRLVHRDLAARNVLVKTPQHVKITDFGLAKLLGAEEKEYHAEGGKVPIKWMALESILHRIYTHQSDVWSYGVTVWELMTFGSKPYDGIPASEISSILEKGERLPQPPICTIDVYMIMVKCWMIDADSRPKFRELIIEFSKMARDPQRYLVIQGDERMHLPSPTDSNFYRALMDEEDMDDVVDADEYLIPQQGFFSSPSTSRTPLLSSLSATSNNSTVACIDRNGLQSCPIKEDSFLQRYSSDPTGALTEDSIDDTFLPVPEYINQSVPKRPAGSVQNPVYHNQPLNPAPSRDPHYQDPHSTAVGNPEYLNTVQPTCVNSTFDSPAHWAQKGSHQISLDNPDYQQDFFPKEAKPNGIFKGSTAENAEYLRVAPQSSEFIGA
T2 sequence (P00533 with tags, fused parts or gaps INS769ASV): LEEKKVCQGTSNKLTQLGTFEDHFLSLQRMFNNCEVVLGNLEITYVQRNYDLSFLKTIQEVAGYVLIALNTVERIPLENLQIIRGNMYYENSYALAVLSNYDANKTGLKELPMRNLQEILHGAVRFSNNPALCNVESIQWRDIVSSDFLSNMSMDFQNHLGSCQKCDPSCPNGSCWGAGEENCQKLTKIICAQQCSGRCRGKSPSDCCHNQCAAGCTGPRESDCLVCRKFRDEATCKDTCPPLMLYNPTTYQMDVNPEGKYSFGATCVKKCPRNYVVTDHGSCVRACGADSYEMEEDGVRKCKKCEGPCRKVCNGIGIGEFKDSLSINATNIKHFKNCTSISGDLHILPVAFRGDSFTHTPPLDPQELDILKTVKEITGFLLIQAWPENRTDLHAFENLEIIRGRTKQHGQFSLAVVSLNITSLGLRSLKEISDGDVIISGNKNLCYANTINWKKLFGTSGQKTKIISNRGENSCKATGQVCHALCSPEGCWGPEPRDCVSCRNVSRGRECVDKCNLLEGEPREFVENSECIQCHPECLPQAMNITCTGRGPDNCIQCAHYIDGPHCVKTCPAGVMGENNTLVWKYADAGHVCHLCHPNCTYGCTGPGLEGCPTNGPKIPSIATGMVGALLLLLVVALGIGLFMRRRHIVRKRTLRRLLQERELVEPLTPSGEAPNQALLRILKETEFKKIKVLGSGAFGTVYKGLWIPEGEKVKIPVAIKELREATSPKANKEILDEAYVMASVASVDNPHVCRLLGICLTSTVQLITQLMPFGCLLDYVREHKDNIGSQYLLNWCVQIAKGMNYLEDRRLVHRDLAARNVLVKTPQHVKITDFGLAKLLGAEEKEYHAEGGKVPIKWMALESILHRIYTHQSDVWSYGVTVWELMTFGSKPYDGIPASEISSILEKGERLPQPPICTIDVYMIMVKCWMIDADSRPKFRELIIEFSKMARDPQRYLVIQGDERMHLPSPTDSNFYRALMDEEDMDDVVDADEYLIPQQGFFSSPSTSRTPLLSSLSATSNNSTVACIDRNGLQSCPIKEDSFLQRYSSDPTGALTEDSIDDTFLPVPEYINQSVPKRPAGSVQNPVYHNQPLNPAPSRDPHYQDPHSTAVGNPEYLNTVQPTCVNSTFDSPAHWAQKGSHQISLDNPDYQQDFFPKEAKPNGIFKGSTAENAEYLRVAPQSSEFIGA
T1 sequence (P00533 25-1210): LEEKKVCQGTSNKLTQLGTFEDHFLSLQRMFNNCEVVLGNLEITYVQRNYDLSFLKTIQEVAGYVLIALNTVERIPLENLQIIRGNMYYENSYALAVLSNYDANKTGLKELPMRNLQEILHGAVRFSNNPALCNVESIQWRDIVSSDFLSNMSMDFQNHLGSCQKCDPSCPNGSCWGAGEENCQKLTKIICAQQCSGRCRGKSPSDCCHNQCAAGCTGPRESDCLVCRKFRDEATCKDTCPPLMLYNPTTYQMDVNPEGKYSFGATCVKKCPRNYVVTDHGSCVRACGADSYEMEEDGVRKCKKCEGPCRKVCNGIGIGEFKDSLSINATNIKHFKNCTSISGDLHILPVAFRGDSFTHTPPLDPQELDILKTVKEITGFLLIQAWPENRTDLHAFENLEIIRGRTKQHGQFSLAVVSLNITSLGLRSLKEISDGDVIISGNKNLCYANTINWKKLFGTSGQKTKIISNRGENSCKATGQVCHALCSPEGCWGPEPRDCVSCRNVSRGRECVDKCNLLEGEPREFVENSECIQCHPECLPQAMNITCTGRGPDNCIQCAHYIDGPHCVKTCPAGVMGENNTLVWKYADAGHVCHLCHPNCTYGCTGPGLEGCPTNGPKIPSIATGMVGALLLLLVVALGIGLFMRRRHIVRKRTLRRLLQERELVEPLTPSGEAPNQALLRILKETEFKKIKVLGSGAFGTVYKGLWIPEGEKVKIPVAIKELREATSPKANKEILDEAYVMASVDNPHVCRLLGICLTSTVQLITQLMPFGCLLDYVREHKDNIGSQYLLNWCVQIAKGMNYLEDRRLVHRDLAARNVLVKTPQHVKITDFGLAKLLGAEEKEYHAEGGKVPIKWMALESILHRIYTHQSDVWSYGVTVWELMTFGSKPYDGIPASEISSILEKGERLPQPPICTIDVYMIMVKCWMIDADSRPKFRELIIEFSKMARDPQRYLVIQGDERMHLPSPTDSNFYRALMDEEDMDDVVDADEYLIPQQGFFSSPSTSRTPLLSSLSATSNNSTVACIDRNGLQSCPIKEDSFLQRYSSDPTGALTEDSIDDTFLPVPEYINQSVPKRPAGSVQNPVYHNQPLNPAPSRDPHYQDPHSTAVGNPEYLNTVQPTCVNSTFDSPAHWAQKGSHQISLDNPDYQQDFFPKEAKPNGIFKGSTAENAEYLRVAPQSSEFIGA
Chain of EGFR (CUTO14 cells) (P00533 with tags, fused parts or gaps DUP767-769): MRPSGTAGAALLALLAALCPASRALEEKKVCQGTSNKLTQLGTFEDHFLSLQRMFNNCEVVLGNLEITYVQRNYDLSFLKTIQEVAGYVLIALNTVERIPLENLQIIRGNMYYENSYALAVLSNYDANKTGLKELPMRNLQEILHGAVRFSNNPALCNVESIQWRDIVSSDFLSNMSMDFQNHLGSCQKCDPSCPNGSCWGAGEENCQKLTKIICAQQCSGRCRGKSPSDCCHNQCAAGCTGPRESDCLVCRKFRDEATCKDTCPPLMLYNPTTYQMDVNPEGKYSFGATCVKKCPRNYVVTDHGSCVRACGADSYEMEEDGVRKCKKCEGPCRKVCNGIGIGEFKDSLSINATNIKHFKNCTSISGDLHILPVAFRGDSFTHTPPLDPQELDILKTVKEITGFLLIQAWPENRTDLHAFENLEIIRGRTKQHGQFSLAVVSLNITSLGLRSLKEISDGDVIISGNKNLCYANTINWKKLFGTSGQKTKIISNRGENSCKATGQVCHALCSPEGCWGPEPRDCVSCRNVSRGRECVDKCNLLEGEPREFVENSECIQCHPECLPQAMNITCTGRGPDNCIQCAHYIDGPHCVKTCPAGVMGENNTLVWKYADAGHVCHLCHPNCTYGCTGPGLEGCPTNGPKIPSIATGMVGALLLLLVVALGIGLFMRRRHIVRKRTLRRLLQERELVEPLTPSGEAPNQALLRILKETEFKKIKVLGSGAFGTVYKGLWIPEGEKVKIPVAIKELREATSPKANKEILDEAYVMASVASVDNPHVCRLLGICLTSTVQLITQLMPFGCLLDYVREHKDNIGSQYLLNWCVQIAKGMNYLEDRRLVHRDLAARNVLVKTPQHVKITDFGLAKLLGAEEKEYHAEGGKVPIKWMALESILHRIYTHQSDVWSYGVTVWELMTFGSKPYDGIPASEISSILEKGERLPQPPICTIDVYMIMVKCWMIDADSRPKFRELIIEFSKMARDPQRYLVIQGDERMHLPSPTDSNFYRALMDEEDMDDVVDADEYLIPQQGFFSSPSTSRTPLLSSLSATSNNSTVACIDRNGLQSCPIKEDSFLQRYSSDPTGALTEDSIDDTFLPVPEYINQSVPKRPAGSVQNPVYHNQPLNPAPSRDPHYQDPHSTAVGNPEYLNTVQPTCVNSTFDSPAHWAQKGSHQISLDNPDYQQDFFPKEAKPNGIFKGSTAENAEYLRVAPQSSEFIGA

Structure (SMILES) | IC50 [1] | IC50 [2] | IC50 [3] | IC50 [4] | IC50 [5] | IC50 [6] | IC50 [7] | IC50 [8] | IC50 [9]
COc1c(Cl)cccc1Nc1c(-c2ccncc2)[nH]c2c1C(=O)NCC2C[C@@H]1CN(C)CCO1 (single isomer, unassigned) [Compound 646] | > 1000 nM | > 1000 nM | > 1000 nM | > 1000 nM | < 100 nM |  |  |  | 
COc1c(F)cccc1Nc1c(-c2ccncc2F)[nH]c2c1C(=O)NC[C@H]2C[C@@H]1CCO1 [Compound 422a, (7R)-3-[(3-fluoro-2-methoxyphenyl)amino]-2-(3-fluoropyridin-4-yl)-7-[(2R)-oxetan-2-ylmethyl]-1H,5H,6H,7H-pyrrolo[3,2-c]pyridin-4-one] | 100 to 1000 nM | < 100 nM | < 100 nM | < 100 nM |  | < 100 nM | < 100 nM | < 100 nM | 100 to 1000 nM
COc1c(Cl)cccc1Nc1c(-c2ccnc(C)n2)[nH]c2c1C(=O)NC[C@@H]2C[C@@H]1COCCO1 [Compound 552, (7S)-3-[(3-chloro-2-methoxyphenyl)amino]-7-[(2R)-1,4-dioxan-2-ylmethyl]-2-(2-methylpyrimidin-4-yl)-1H,5H,6H,7H-pyrrolo[3,2-c]pyridin-4-one] | > 1000 nM |  | < 100 nM |  | < 100 nM |  |  |  | 

Now from value to compound:

IC50 [1] | IC50 [2] | IC50 [3] | IC50 [4] | IC50 [5] | IC50 [6] | IC50 [7] | IC50 [8] | IC50 [9] | Structure (SMILES)
100 to 1000 nM | < 100 nM | < 100 nM | < 100 nM | < 100 nM |  |  |  |  | COc1c(Cl)cccc1Nc1c(-c2ccncc2F)[nH]c2c1C(=O)NCC2C[C@@H]1CO[C@@H](CN(C)C)CO1 (single isomer, unassigned) [Compound 562, (7R*)-3-[(3-chloro-2-methoxyphenyl)amino]-7-{[(2R,5S)-5-[(dimethylamino)methyl]-1,4-dioxan-2-yl]methyl}-2-(3-fluoropyridin-4-yl)-1H,5H,6H,7H-pyrrolo[3,2-c]pyridin-4-one]
100 to 1000 nM |  | < 100 nM |  |  | < 100 nM | < 100 nM | < 100 nM |  | COc1c(Cl)cccc1Nc1c(-c2ccnc(C)n2)[nH]c2c1C(=O)NC[C@H]2CC1COCCO1 (stereo in doubt) [Compound 573, (7R)-3-[(3-chloro-2-methoxyphenyl)amino]-7-[(2R)-1,4-dioxan-2-ylmethyl]-2-(2-methylpyrimidin-4-yl)-1H,5H,6H,7H-pyrrolo[3,2-c]pyridin-4-one]

Source: US20240101576A1, “HETEROCYCLIC INHIBITORS OF EGFR AND/OR HER2, FOR USE IN THE TREATMENT OF CANCER” (Scorpion Therapeutics, Inc., priority 2020, published 2024)
